# Columns and labels:
# Assay type in all cases: in vivo
# Settings in all cases: treatment dosage 320 g/ha
# Indian mallow [1] = assay: Test Example 4: weedkilling efficacy by foliar treatment; K: Indian mallow
# Outline: (§1)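 Seeds are spot-sown into sterilized diluvial soil and covered with about 1.5 cm of soil. After 14 days' greenhouse growth at 25 to 30° C, plants are sprayed on stems and leaves with diluted emulsion at the stated g/ha rate, then scored at 3 weeks.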
# barnyard grass [2] = assay: Test Example 1: weedkilling efficacy, preemergent weed treatment in the submerged state; A: barnyard grass
# Outline: (§2)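 Alluvial soil in Wagner pots flooded to 4 cm; barnyard grass, bulrush and oval-leafed pondweed seeds sown, then 2.5-leaf rice seedlings transplanted. Same day, emulsified compound diluted in water to set g/ha dosages and applied to water surface; greenhouse 25–30 °C, effect scored by criteria after 3 weeks.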
# catchweed [3] = assay: Test Example 3: weedkilling efficacy through soil treatment; O: catchweed
# Outline: (§3)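 Crop and weed responses were judged three weeks after a uniform surface spray of the water-diluted emulsion at the given g/ha rate. Seeds sat beneath about 1.5 cm of sterilized diluvial soil, and boxes stood in a greenhouse at 25 to 30° C.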
# black-grass [4] = assay: Test Example 4: weedkilling efficacy by foliar treatment; H: black-grass
# Outline: as §1
# corn [5] = assay: Test Example 3: soil treatment, effect on crop; c: corn
# Outline: as §3
# beet [6] = assay: Test Example 4: foliar treatment, effect on crop; f: beet
# Outline: as §1
# green foxtail [7] = assay: Test Example 4: weedkilling efficacy by foliar treatment; E: green foxtail
# Outline: as §1
# common wind-grass [8] = assay: Test Example 3: weedkilling efficacy through soil treatment; J: common wind-grass
# Outline: as §3
# black-grass [9] = assay: Test Example 3: weedkilling efficacy through soil treatment; H: black-grass
# Outline: as §3
# birds-eye speedwell [10] = assay: Test Example 4: weedkilling efficacy by foliar treatment; p: birds-eye speedwell
# Outline: as §1
# barnyard grass [11] = assay: Test Example 4: weedkilling efficacy by foliar treatment; F: barnyard grass
# Outline: as §1
# directly sown rice [12] = assay: Test Example 3: soil treatment, effect on crop; b: directly sown rice
# Outline: as §3
# wheat [13] = assay: Test Example 3: soil treatment, effect on crop; e: wheat
# Outline: as §3
# green foxtail [14] = assay: Test Example 3: weedkilling efficacy through soil treatment; E: green foxtail
# Outline: as §3
# redroot pigweed [15] = assay: Test Example 4: weedkilling efficacy by foliar treatment; L: redroot pigweed
# Outline: as §1
# chickweed [16] = assay: Test Example 3: weedkilling efficacy through soil treatment; N: chickweed
# Outline: as §3
# rapeseed [17] = assay: Test Example 4: foliar treatment, effect on crop; g: rapeseed
# Outline: as §1
# oval-leafed pondweed [18] = assay: Test Example 2: weedkilling efficacy, growth period weed treatment in the submerged state; C: oval-leafed pondweed
# Outline: (§4)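 First, alluvial soil in pots is flooded to 4 cm and mixed seed is sown. Next, plants grow in a greenhouse at 25 to 30° C until the 1-2 leaf stage. Then diluted emulsion is applied onto the water surface at the given g/ha rate, and injury is assessed after 3 weeks.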
# transplanted rice = assay: Test Example 1: preemergent weed treatment in the submerged state, effect on crop; a: transplanted rice
# Outline: as §2
# Indian mallow [19] = assay: Test Example 3: weedkilling efficacy through soil treatment; K: Indian mallow
# Outline: as §3
# chickweed [20] = assay: Test Example 4: weedkilling efficacy by foliar treatment; N: chickweed
# Outline: as §1
# beet [21] = assay: Test Example 3: soil treatment, effect on crop; f: beet
# Outline: as §3
# common wind-grass [22] = assay: Test Example 4: weedkilling efficacy by foliar treatment; J: common wind-grass
# Outline: as §1
# wild oat [23] = assay: Test Example 3: weedkilling efficacy through soil treatment; G: wild oat
# Outline: as §3
# crabgrass [24] = assay: Test Example 3: weedkilling efficacy through soil treatment; D: crabgrass
# Outline: as §3
# catchweed [25] = assay: Test Example 4: weedkilling efficacy by foliar treatment; O: catchweed
# Outline: as §1
# barnyard grass [26] = assay: Test Example 3: weedkilling efficacy through soil treatment; F: barnyard grass
# Outline: as §3
# wheat [27] = assay: Test Example 4: foliar treatment, effect on crop; e: wheat
# Outline: as §1
# directly sown rice [28] = assay: Test Example 4: foliar treatment, effect on crop; b: directly sown rice
# Outline: as §1
# Italian ryegrass [29] = assay: Test Example 4: weedkilling efficacy by foliar treatment; I: Italian ryegrass
# Outline: as §1
# bulrush [30] = assay: Test Example 2: weedkilling efficacy, growth period weed treatment in the submerged state; B: bulrush
# Outline: as §4
# redroot pigweed [31] = assay: Test Example 3: weedkilling efficacy through soil treatment; L: redroot pigweed
# Outline: as §3
# oval-leafed pondweed [32] = assay: Test Example 1: weedkilling efficacy, preemergent weed treatment in the submerged state; C: oval-leafed pondweed
# Outline: as §2
# Italian ryegrass [33] = assay: Test Example 3: weedkilling efficacy through soil treatment; I: Italian ryegrass
# Outline: as §3
# birds-eye speedwell [34] = assay: Test Example 3: weedkilling efficacy through soil treatment; p: birds-eye speedwell
# Outline: as §3
# bulrush [35] = assay: Test Example 1: weedkilling efficacy, preemergent weed treatment in the submerged state; B: bulrush
# Outline: as §2
# corn [36] = assay: Test Example 4: foliar treatment, effect on crop; c: corn
# Outline: as §1
# fig-leafed goosefoot = assay: Test Example 3: weedkilling efficacy through soil treatment; M: fig-leafed goosefoot
# Outline: as §3
# soybean [37] = assay: Test Example 4: foliar treatment, effect on crop; d: soybean
# Outline: as §1
# barnyard grass [38] = assay: Test Example 2: weedkilling efficacy, growth period weed treatment in the submerged state; A: barnyard grass
# Outline: as §4
# crabgrass [39] = assay: Test Example 4: weedkilling efficacy by foliar treatment; D: crabgrass
# Outline: as §1
# soybean [40] = assay: Test Example 3: soil treatment, effect on crop; d: soybean
# Outline: as §3
# wild oat [41] = assay: Test Example 4: weedkilling efficacy by foliar treatment; G: wild oat
# Outline: as §1
# rapeseed [42] = assay: Test Example 3: soil treatment, effect on crop; g: rapeseed
# Outline: as §3
smiles,measurement,setting,value
COc1cc(Cl)nc(NC(=O)C(C)(C)N2COC(C)=C(c3ccccc3)C2=O)c1 [B-2-47],K (Indian mallow) weedkilling efficacy grade,Indian mallow [1],0 (weed kill ratio 5% or less (practically no effect))
same,A (barnyard grass) weedkilling efficacy grade,barnyard grass [2],"5 (weed kill ratio 90% or more, (practically complete withering))"
same,O (catchweed) weedkilling efficacy grade,catchweed [3],"4 (weed kill ratio 70% or more, less than 90%)"
same,H (black-grass) weedkilling efficacy grade,black-grass [4],"2 (weed kill ratio 20% or more, less than 40%)"
same,c (corn) effect on crop grade,corn [5],0 (weed kill ratio 5% or less (practically no effect))
same,f (beet) effect on crop grade,beet [6],"3 (weed kill ratio 40% or more, less than 70%)"
same,E (green foxtail) weedkilling efficacy grade,green foxtail [7],"4 (weed kill ratio 70% or more, less than 90%)"
same,J (common wind-grass) weedkilling efficacy grade,common wind-grass [8],"5 (weed kill ratio 90% or more, (practically complete withering))"
same,H (black-grass) weedkilling efficacy grade,black-grass [9],"5 (weed kill ratio 90% or more, (practically complete withering))"
same,P (birds-eye speedwell) weedkilling efficacy grade,birds-eye speedwell [10],"4 (weed kill ratio 70% or more, less than 90%)"
same,F (barnyard grass) weedkilling efficacy grade,barnyard grass [11],"1 (weed kill ratio 5% or more, less than 20%)"
same,b (directly sown rice) effect on crop grade,directly sown rice [12],"3 (weed kill ratio 40% or more, less than 70%)"
same,e (wheat) effect on crop grade,wheat [13],0 (weed kill ratio 5% or less (practically no effect))
same,E (green foxtail) weedkilling efficacy grade,green foxtail [14],"5 (weed kill ratio 90% or more, (practically complete withering))"
same,L (redroot pigweed) weedkilling efficacy grade,redroot pigweed [15],0 (weed kill ratio 5% or less (practically no effect))
same,N (chickweed) weedkilling efficacy grade,chickweed [16],"3 (weed kill ratio 40% or more, less than 70%)"
same,g (rapeseed) effect on crop grade,rapeseed [17],"3 (weed kill ratio 40% or more, less than 70%)"
same,C (oval-leafed pondweed) weedkilling efficacy grade,oval-leafed pondweed [18],"5 (weed kill ratio 90% or more, (practically complete withering))"
same,a (transplanted rice) effect on crop grade,transplanted rice,"1 (weed kill ratio 5% or more, less than 20%)"
same,K (Indian mallow) weedkilling efficacy grade,Indian mallow [19],0 (weed kill ratio 5% or less (practically no effect))
same,N (chickweed) weedkilling efficacy grade,chickweed [20],"2 (weed kill ratio 20% or more, less than 40%)"
same,f (beet) effect on crop grade,beet [21],"2 (weed kill ratio 20% or more, less than 40%)"
same,J (common wind-grass) weedkilling efficacy grade,common wind-grass [22],"4 (weed kill ratio 70% or more, less than 90%)"
same,G (wild oat) weedkilling efficacy grade,wild oat [23],"2 (weed kill ratio 20% or more, less than 40%)"
same,D (crabgrass) weedkilling efficacy grade,crabgrass [24],"4 (weed kill ratio 70% or more, less than 90%)"
same,O (catchweed) weedkilling efficacy grade,catchweed [25],"3 (weed kill ratio 40% or more, less than 70%)"
same,F (barnyard grass) weedkilling efficacy grade,barnyard grass [26],"4 (weed kill ratio 70% or more, less than 90%)"
same,e (wheat) effect on crop grade,wheat [27],0 (weed kill ratio 5% or less (practically no effect))
same,b (directly sown rice) effect on crop grade,directly sown rice [28],0 (weed kill ratio 5% or less (practically no effect))
same,I (Italian ryegrass) weedkilling efficacy grade,Italian ryegrass [29],"2 (weed kill ratio 20% or more, less than 40%)"
same,B (bulrush) weedkilling efficacy grade,bulrush [30],"5 (weed kill ratio 90% or more, (practically complete withering))"
same,L (redroot pigweed) weedkilling efficacy grade,redroot pigweed [31],0 (weed kill ratio 5% or less (practically no effect))
same,C (oval-leafed pondweed) weedkilling efficacy grade,oval-leafed pondweed [32],"5 (weed kill ratio 90% or more, (practically complete withering))"
same,I (Italian ryegrass) weedkilling efficacy grade,Italian ryegrass [33],"5 (weed kill ratio 90% or more, (practically complete withering))"
same,P (birds-eye speedwell) weedkilling efficacy grade,birds-eye speedwell [34],"5 (weed kill ratio 90% or more, (practically complete withering))"
same,B (bulrush) weedkilling efficacy grade,bulrush [35],"5 (weed kill ratio 90% or more, (practically complete withering))"
same,c (corn) effect on crop grade,corn [36],0 (weed kill ratio 5% or less (practically no effect))
same,M (fig-leafed goosefoot) weedkilling efficacy grade,fig-leafed goosefoot,"2 (weed kill ratio 20% or more, less than 40%)"
same,d (soybean) effect on crop grade,soybean [37],0 (weed kill ratio 5% or less (practically no effect))
same,A (barnyard grass) weedkilling efficacy grade,barnyard grass [38],"5 (weed kill ratio 90% or more, (practically complete withering))"
same,D (crabgrass) weedkilling efficacy grade,crabgrass [39],"3 (weed kill ratio 40% or more, less than 70%)"
same,d (soybean) effect on crop grade,soybean [40],0 (weed kill ratio 5% or less (practically no effect))
same,G (wild oat) weedkilling efficacy grade,wild oat [41],"2 (weed kill ratio 20% or more, less than 40%)"
same,g (rapeseed) effect on crop grade,rapeseed [42],"3 (weed kill ratio 40% or more, less than 70%)"

# From US9738634B2, “Heterocyclic amide compound and herbicide” (SYNGENTA PARTICIPATIONS AG, priority 2013, dated 2017)
